Values of other authors as cited in PMC4303313 (Biochemistry, 2014).

What was measured:
[1] = target: T1, reduced RNase (Bos taurus, UniProt P61823)
T1 sequence (P61823 27-150): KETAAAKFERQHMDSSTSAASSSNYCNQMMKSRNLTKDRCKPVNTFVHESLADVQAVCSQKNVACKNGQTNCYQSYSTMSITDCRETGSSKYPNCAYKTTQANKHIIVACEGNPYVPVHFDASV

[2] = target: T2, reduced RfBP (Gallus gallus, UniProt P02752); conditions: no GSH
T2 sequence (P02752 18-238): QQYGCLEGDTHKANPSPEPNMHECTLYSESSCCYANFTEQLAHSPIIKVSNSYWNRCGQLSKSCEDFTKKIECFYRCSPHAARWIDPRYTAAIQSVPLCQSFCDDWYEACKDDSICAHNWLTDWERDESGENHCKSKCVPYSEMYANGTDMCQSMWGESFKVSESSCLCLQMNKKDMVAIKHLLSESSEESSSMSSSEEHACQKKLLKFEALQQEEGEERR

In the case of `C[As](O)O` [MMA], the “formation of filamentous deposits from reduced RNase” value ([1]; no GSH) is given as “led to the formation of filamentous deposits”, the “formation of aggregates from reduced RNase” value ([1]; reduced RNase and GSH) is given as “do not appear” and the “effect on ability of reoxidized RfBP to rebind riboflavin” value [2] is given as “profoundly attenuated”.
